Measured values from article PMC7240875 (Integrative Cancer Therapies, 2018).

Tests used:
Assay type in all cases: cell-based
[1] = target: T1, NAD(P)H:quinone oxidoreductase-1 (NQO1) (Homo sapiens, UniProt P15559); test: NQO1 activity; conditions: KKU100, read-out: % inhibition at 4.55 μM
[2] = target: T1, NAD(P)H:quinone oxidoreductase-1 (NQO1); test: single-concentration NQO1 activity screen; conditions: read-out: % inhibition at 4.55 μM
[3] = target: T1, NAD(P)H:quinone oxidoreductase-1 (NQO1); test: NQO1 activity; conditions: KKU100, read-out: % inhibition at 4.55 μM; remark: listed apart in the source

T1 sequence (P15559 whole entry): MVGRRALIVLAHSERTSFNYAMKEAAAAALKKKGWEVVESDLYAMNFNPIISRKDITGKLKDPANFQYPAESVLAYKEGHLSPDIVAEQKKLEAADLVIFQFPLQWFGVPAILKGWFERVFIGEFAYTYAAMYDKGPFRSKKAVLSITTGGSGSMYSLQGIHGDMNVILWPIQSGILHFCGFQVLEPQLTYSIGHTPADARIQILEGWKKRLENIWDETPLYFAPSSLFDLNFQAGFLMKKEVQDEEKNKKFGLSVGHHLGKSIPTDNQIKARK

| SMILES | inhibition at 4.55 µM [1] [%] | inhibition at 4.55 µM [3] [%] | also measured |
| --- | --- | --- | --- |
| O=c1ccc2cc(O)c(O)cc2o1 [aesculetin] | 34.9 |  |  |
| O=c1ccc2ccccc2o1 [coumarin] | 41.8 |  |  |
| O=c1cc(-c2ccc(O)c(O)c2)oc2cc(O)cc(O)c12 [luteolin] |  |  | inhibition at 4.55 µM [2]: 55% |
| COc1cc2ccc(=O)oc2cc1O [scopoletin] |  | 77.4 |  |
| O=c1ccc2ccc(O)cc2o1 [umbelliferone] |  | 63.5 |  |
